“Also recorded” adds a separate entry of the source.
Experiments:
[1] = regular dietary intake; cited from earlier work
[2] = RBC omega-3 fatty acid content, dietary study in beagle dogs; format: in vivo
Experimental: (§1) The test article, SDA, was administered in the diet once daily, 7 days per week, for up to 90 days to three groups (Groups 1-3) of male beagle dogs. The reference article, eicosapentaenoic acid (EPA), was administered to Group 4 on the same dosing regimen. Both SDA and EPA were supplied as ethyl esters. The control article, food grade high oleic sunflower oil (SFO), was administered to Group 5 on the same dosing regimen. SFO was also added to food of groups 1 through 4 so that all animals received a similar volume of oil per kg body wt. A dietary supplement, vitamin E, was added to all diets. Dosage levels were 21.4, 64.2 and 192.9 mg/kg/day SDA, 42.9 mg/kg/day EPA and were calculated for each animal based on body weight for Groups 1, 2, 3 and 4, respectively. Each group consisted of 15 males. Five animals/group were scheduled for each interim necropsy (study weeks 4 and 8) and the primary necropsy at the end of the 12-week treatment period. In addition, five animals were euthanized prior to randomization and test article administration to establish baseline levels of fatty acids (pretest necropsy).
(§2) The animals were observed twice daily for mortality and moribundity. Clinical examinations were performed daily, and detailed physical examinations were performed weekly. Individual body weights were recorded weekly. Food consumption was recorded daily and reported weekly. Blood samples for analysis of fatty acids were collected from five dogs scheduled for the pretest necropsy and from all surviving dogs during study weeks 2, 4, 8 and 12. All animals were euthanized, and in addition to liver and kidney sections, two samples of heart tissue were collected, one set was analyzed for fatty acid analysis and the other sample was retained for microscopic analysis at the scheduled necropsies. Sections from the heart, liver and kidney were examined microscopically from five animals during pretest and from 5 animals/group (Groups 3-5 only) at the study week 12 necropsy.
Blood samples were collected from the 5 dogs selected for the pretest necropsy and from all surviving dogs at study weeks 2, 4, 8 and 12. The samples were collected from the dog's jugular vein into tubes containing EDTA prior to the feeding/dosing regimen. The red blood cells (RBC) were separated from the plasma by centrifugation at 1500× for approximately 20 minutes at 4° C. The plasma was transferred to polypropylene tubes and stored at approximately −70° C. for future analysis. The buffy coat was removed from the packed RBCs, and the RBCs were divided approximately equally into two tubes.
(§3) Tissue preparation, lipid extraction and analysis were conducted according to a conventional protocol. Briefly, heart tissues were first lyophilized overnight, and then pulverized by grinding between two ground glass slides. The ground tissue was suspended in saline and subjected to 10-15 seconds of sonication. Lipids were extracted with methanol and methylene chloride, and the solvent evaporated under nitrogen. Thawed RBCs were extracted with isopropanol and hexane. After centrifugation of the stroma, the solvent was transferred and evaporated under nitrogen. Phospholipids extracted from heart and RBC samples were methylated with BF3, at 100° C. for 10 minutes. These conditions transmethylate glycerophospholipid FAs but not sphingolipid FAs. After heating, all samples were extracted with hexane and water. The hexane layer was removed, dried under nitrogen, and the FA methyl esters reconstituted in hexane for analysis by flame ionization gas chromatography. FAs were identified by comparison with known standards, and FA compositions were reported as weight percent of total FA.

[3] = Heart tissue omega-3 fatty acid content, dietary study in beagle dogs; format: in vivo
Experimental: as §1, §2, §3
Animals were euthanized by an intravenous injection of sodium pentobarbital followed by exsanguinations. Two samples of approximately 200 mg of heart tissue from the left ventricle were collected, rinsed in chilled saline, wrapped in aluminum foil, flash frozen in liquid nitrogen, and stored at approximately −70° C. The samples were analyzed for pathologic abnormalities.

[4] = dog, in vivo
Experimental: as §1, with “Five animals/group were scheduled for each interim necropsy (study weeks 4 and 8) and the primary necropsy at the end of the 12-week treatment period. In addition, five animals were euthanized prior to randomization and test article administration to establish baseline levels of fatty acids (pretest necropsy).” left out
The animals were observed twice daily for mortality and moribundity. […] Individual body weights were recorded weekly. Food consumption was recorded daily and reported weekly. […] All animals were euthanized, and in addition to liver and kidney sections, two samples of heart tissue were collected, one set was analyzed for fatty acid analysis and the other sample was retained for microscopic analysis at the scheduled necropsies. […]
Animals were euthanized by an intravenous injection of sodium pentobarbital followed by exsanguinations. […] The samples were analyzed for pathologic abnormalities. […]

[5] = dietary supplementation, human diet; phospholipid fractions; cited from earlier work

CC/C=C\C/C=C\C/C=C\CCCCCCCC(=O)O [ALA, α-linolenic acid]
Tissue concentrations of EPA and DHA [1]: proven ineffective in raising the tissue concentrations of EPA and DHA

CC/C=C\C/C=C\C/C=C\C/C=C\C/C=C\CCCC(=O)O [EPA, eicosapentaenoic acid, reference compound]
RBC omega-3 fatty acid content relative to SFO-treated dogs (negative control) ([2]; 42.9 mg/kg/day EPA in diet, between study weeks 2 and 12): 3-10 fold | Heart tissue omega-3 fatty acid content relative to sunflower oil-treated dogs (negative control) ([3]; 42.9 mg/kg/day EPA in diet, between study weeks 4 and 12): 3-5 fold

CC/C=C\C/C=C\C/C=C\C/C=C\CCCCC(=O)O [SDA, Stearidonic acid]
Microscopic changes to heart, liver and kidney tissues [4]: did not cause any significant microscopic changes | Microscopic findings (heart, liver, kidney) [4]: no microscopic findings attributed to test article administration | Total omega-3 fatty acid content (RBC) over pretreatment levels ([2]; 21.4 mg/kg/day SDA, as early as study week 2): overall increase | Time of peak of total omega-3 fatty acid content (RBC) ([2]; 21.4 mg/kg/day SDA, decreasing thereafter): approximately 4 weeks | Total omega-3 fatty acid content (RBC) over pretreatment ([2]; 192.9 mg/kg/day SDA (Group 3), elevated from study week 2 through 12 weeks): approximately 2 fold | Overall increase in omega-3 fatty acid content (RBC) over time compared with the EPA group ([2]; 192.9 mg/kg/day SDA vs 42.9 mg/kg/day EPA, slightly lower): comparable to the increase seen in the 42.9 mg/kg/day EPA group | Omega-3 fatty acid content in red blood cells (RBC) ([2]; SDA 21.4, 64.2 and 192.9 mg/kg/day in diet, study weeks 2, 4, 8 and 12): increased in a dose-dependent manner | Heart omega-3 fatty acid content over pretreatment levels ([3]; 21.4 mg/kg/day SDA, study week 4): negligible increase | Heart omega-3 fatty acid content, peak over pretreatment levels ([3]; 21.4 mg/kg/day SDA, study week 8): approximately 1.5 fold | Heart omega-3 fatty acid content over pretreatment levels ([3]; 192.9 mg/kg/day SDA, study week 12): approximately 3 fold | Omega-3 fatty acid content in the heart tissue ([3]; SDA 21.4, 64.2 and 192.9 mg/kg/day in diet, study weeks 4, 8 and 12): increased in a dose-dependent manner | Conversion into EPA and DPA and incorporation into cardiac and red blood cell membranes ([3]; SDA via the diet daily for 12 consecutive weeks, male beagle dogs): effectively converted into EPA and DPA | Concentrations of EPA and DPA in erythrocytes and plasma [5]: increase the concentrations of EPA and DPA; also recorded: effectively converted into EPA and DPA
